Assay results from the NIST ThermoML archive (doi:10.1016/j.fluid.2007.09.028).

Experiment: xn = mol fraction of the nth substance listed
Conditions: 101 kPa, Liquid

Clc1ccccc1 [chlorobenzene] + CC(C)(C)O
mass density [kg/m3]
Conditions	303.15 K	308.15 K	313.15 K	318.15 K	323.15 K
x2 = 0	1095.64	1090.23	1084.82	1079.42	1073.97
x2 = 0.0514	1078.9	1073.42	1067.94	1062.44	1056.94
x2 = 0.1001	1063.67	1058.13	1052.58	1047.01	1041.43
x2 = 0.1498	1048.32	1042.74	1037.14	1031.52	1025.89
x2 = 0.199	1033.1	1027.51	1021.89	1016.24	1010.56
x2 = 0.2505	1017.18	1011.59	1005.96	1000.3	994.615
x2 = 0.3	1001.8	996.225	990.603	984.94	979.276
x2 = 0.351	985.908	980.337	974.721	969.053	963.346
x2 = 0.3707	979.707	974.152	968.545	962.885	957.187
x2 = 0.3997	970.62	965.075	959.477	953.823	948.132
x2 = 0.45	954.724	949.206	943.631	937.997	932.311
x2 = 0.5	938.79	933.303	927.755	922.142	916.464
x2 = 0.5499	922.845	917.39	911.872	906.286	900.633
x2 = 0.6003	906.668	901.248	895.76	890.201	884.578
x2 = 0.6499	890.559	885.172	879.716	874.189	868.592
x2 = 0.7002	874.261	868.904	863.477	857.976	852.408
x2 = 0.7482	858.49	853.167	847.772	842.3	836.757
x2 = 0.7998	841.567	836.267	830.896	825.45	819.931
x2 = 0.8498	825.04	819.768	814.423	809	803.512
x2 = 0.9004	808.338	803.082	797.754	792.35	786.87

Clc1ccccc1 [chlorobenzene] + CCCCCO
mass density [kg/m3]
Conditions	288.15 K	293.15 K	298.15 K	303.15 K	308.15 K	313.15 K
x2 = 0	1111.81	1106.43	1101.04	1095.64	1090.23	1084.82
x2 = 0.0495	1096.2	1090.85	1085.48	1080.11	1074.71	1069.32
x2 = 0.1004	1080.5	1075.21	1069.9	1064.57	1059.22	1053.86
x2 = 0.1503	1065.26	1060.04	1054.8	1049.54	1044.25	1038.95
x2 = 0.2001	1050.21	1045.07	1039.9	1034.71	1029.5	1024.27
x2 = 0.2498	1035.28	1030.21	1025.13	1020.02	1014.88	1009.72
x2 = 0.2998	1020.4	1015.41	1010.4	1005.37	1000.32	995.245
x2 = 0.3497	1005.6	1000.69	995.77	990.822	985.847	980.857
x2 = 0.3992	991.011	986.186	981.346	976.483	971.589	966.679
x2 = 0.4498	976.171	971.436	966.685	961.906	957.097	952.274
x2 = 0.5	961.565	956.92	952.254	947.565	942.839	938.086
x2 = 0.5497	947.132	942.578	938.003	933.402	928.768	924.119
x2 = 0.6	932.622	928.159	923.676	919.168	914.627	910.077
x2 = 0.65	918.243	913.875	909.486	905.07	900.622	896.149
x2 = 0.6998	903.925	899.658	895.367	891.05	886.702	882.307
x2 = 0.7499	889.607	885.436	881.246	877.028	872.777	868.496
x2 = 0.8001	875.288	871.223	867.134	863.017	858.866	854.684
x2 = 0.8496	861.143	857.181	853.196	849.186	845.143	841.079
x2 = 0.9002	846.722	842.865	838.986	835.082	831.149	827.194
x2 = 0.95	832.515	828.762	824.99	821.195	817.369	813.521

Clc1ccccc1 [chlorobenzene] + CCC(C)O
mass density [kg/m3]
Conditions	288.15 K	293.15 K	298.15 K	303.15 K	308.15 K	313.15 K
x2 = 0	1111.81	1106.43	1101.04	1095.64	1090.23	1084.82
x2 = 0.0496	1097.45	1092.02	1086.59	1081.16	1075.72	1070.28
x2 = 0.1003	1083.13	1077.7	1072.25	1066.79	1061.32	1055.83
x2 = 0.1501	1069.16	1063.74	1058.31	1052.85	1047.37	1041.88
x2 = 0.2	1055.05	1049.66	1044.24	1038.8	1033.33	1027.86
x2 = 0.2502	1040.78	1035.43	1030.05	1024.63	1019.19	1013.73
x2 = 0.3007	1026.39	1021.07	1015.73	1010.35	1004.94	999.501
x2 = 0.3497	1012.26	1006.99	1001.69	996.346	990.966	985.56
x2 = 0.3999	997.723	992.501	987.245	981.952	976.612	971.251
x2 = 0.4499	983.091	977.922	972.717	967.468	962.174	956.834
x2 = 0.5	968.364	963.258	958.109	952.917	947.675	942.399
x2 = 0.5498	953.525	948.484	943.398	938.263	933.079	927.858
x2 = 0.5999	938.418	933.448	928.431	923.362	918.237	913.072
x2 = 0.6499	923.235	918.341	913.397	908.397	903.335	898.213
x2 = 0.7	907.848	903.04	898.18	893.259	888.276	883.238
x2 = 0.75	892.266	887.557	882.791	877.959	873.061	868.109
x2 = 0.8	876.537	871.933	867.265	862.532	857.722	852.839
x2 = 0.8498	860.576	856.092	851.542	846.918	842.221	837.46
x2 = 0.8997	844.324	839.965	835.544	831.044	826.464	821.827
x2 = 0.9502	827.634	823.427	819.146	814.788	810.337	805.821
